# Experiments:
# [1] = tested on: linearized pUC19 plasmid DNA; experiment: Melting temperature assay; assay type: biochemical; settings: 100 or 500 μM for 3 h
# Experimental: Melting Temperature Assay. Linearized pUC19 DNA (750 ng), prepared as described above, was incubated with the indicated concentration of either MMS or KL-50 (4a) adjusted in a final volume of 18 μL in 100 mM Tris buffer (pH 7.4) for 3 h. Drug stock concentrations were made in DMSO such that each reaction contained a fixed 5% DMSO concentration. Afterwards, 1 μL each of 20× SYBR Green dye (Invitrogen) and 20× ROX reference dye (Invitrogen) was added and melting temperature analysis was run on a StepOnePlus RT PCR System (Applied Biosciences) to generate melting temperature curves.
# LN229 MGMT−/MMR− cells = experiment: Short-term cell viability assay; assay type: cell-based, human
# Experimental: (§1) Short-term Cell Viability Assay. Cells were seeded in 96-well plates at 1000 or 2000 cells/well and allowed to adhere at 23° C. for 60 min and then incubated overnight at 37° C. Cells were treated with indicated concentrations of compounds in triplicate for 4-6 days prior to fixation with 3.7% paraformaldehyde and nuclear staining with 1 μg/mL Hoechst 33342 dye. Cells were imaged on a Cytation 3 imaging reader (BioTek) and quantified using CellProfiler software.
# Statistical analysis. Statistical analysis was performed using GraphPad Prism software. Data are presented as mean or median±SD or SEM as indicated. For in vitro short-term growth delay experiments, IC50 values were determined from the nonlinear regression equation, [inhibitor] vs normalized response with variable slope. […]
# We synthesized the imidazotetrazine 4a (KL-50) and the triazene 4b (KL-85), as vehicles to deliver 2-fluoroethyl diazonium (4c), and a series of related agents to probe structure-activity relationships in tissue culture (FIG. Z1, D and F). […] We evaluated the cytotoxicity of our compounds in short-term cell viability assays against four isogenic LN229 glioblastoma cell lines engineered to be proficient or deficient in MGMT and/or MMR activity, using short hairpin RNAs (shRNAs) targeting MSH2 (referred to as MGMT+/−, MMR+/− cells hereafter; FIG. ZS2A). […]
# [2] = tested on: LN229 MGMT−/MMR+ and MGMT−/MMR− cells; experiment: IR alkaline comet assay; assay type: cell-based, human
# Experimental: IR Alkaline Comet Assay. Assay was performed utilizing the CometAssay Kit (Trevigen) according to the alkaline assay protocol, with the addition of slide irradiation post-lysis. Cells were trypsinized, washed with 1×PBS, added to melted Comet LMAgarose (Trevigen), and spread on Trevigen CometSlides at a density of 1000 cells per sample in 50 μL. Lysis solution (Trevigen) with 10% DMSO was added overnight at 4° C. Slides were removed from lysis buffer and irradiated to 0 or 10 Gy using an XRAD 320 X-Ray System (Precision X-Ray) at 320 kV, 12.5 mA, and 50.0 cm SSD, with a 2 mm Al filter and 20 cm×20 cm collimator. Slides were then placed in alkaline buffer (200 mM NaOH, 1 mM EDTA) for 45 min, followed by electrophoresis in 850 mL alkaline buffer for 45 min at 4° C. Slides were washed and stained with SYBR gold (Invitrogen) per Trevigen assay protocol. Slides were imaged on a Cytation 3 imaging reader (BioTek), and comets were analyzed using CometScore 2.0 software (TriTek).
# We used a well-established comet assay adapted for ICL detection to determine if ICLs were formed in MGMT− cells treated with KL-50 (4a) (FIG. Z3, A and B). In this assay, cells were sequentially exposed to genotoxins and ionizing radiation, and then analyzed by single cell alkaline gel electrophoresis. Attenuation of the IR-induced comet tail is indicative of ICL formation.
# [3] = tested on: genomic DNA of LN229 MGMT−/MMR+ cells; experiment: Genomic DNA denaturing gel electrophoresis; assay type: cell-based, human; settings: 200 μM, 24 h
# Experimental: Genomic DNA Denaturing Gel Electrophoresis. Cells were trypsinized, washed with 1×PBS, and stored at −80° C. prior to processing. Genomic DNA was extracted with the DNeasy Blood & Tissue Kit (Qiagen) per kit protocol. A 0.7% agarose gel was prepared in 100 mM NaCl-2 mM EDTA (pH 8) and soaked in 40 mM NaOH-1 mM EDTA running buffer for 2 h. Genomic DNA (400 ng/well) was then loaded in 1× BlueJuice loading buffer (Invitrogen) and subjected to electrophoresis at 2 V/cm for 30 min, followed by 3 V/cm for 2 h. The gel was neutralized in 150 mM NaCl-100 mM Tris (pH 7.4) for 30 min, twice, and then stained with 1× SYBR Gold in 150 mM NaCl-100 mM Tris (pH 7.4) for 90 min. Imaging was performed on a ChemiDoc XRS+ Molecular Imager (Bio-Rad).
# [4] = tested on: LN229 MGMT+/−, MMR+/− cells; experiment: Clonogenic cell survival assay; settings: cell status given in the value
# Experimental: Cells were trypsinized, washed, counted, and diluted in a medium containing various concentrations of drug. They were then immediately seeded in six-well plates in triplicate at three-fold dilutions, ranging from 9000 to 37 cells per well. Depending on colony size, these plates were kept in the incubator for 10 to 14 days. After incubation, colonies were washed in phosphate-buffered saline (PBS), stained with crystal violet, counted, and quantified.
# [5] = tested on: four isogenic LN229 glioblastoma cell lines (MGMT+/−, MMR+/−); assay type: cell-based; settings: LN229 MGMT+ versus MGMT− cells; listed as 12a
# Experimental: as §1
# Statistical analysis. Statistical analysis was performed using GraphPad Prism software. Data are presented as mean or median±SD or SEM as indicated. For in vitro short-term growth delay experiments, IC50 values were determined from the nonlinear regression equation, [inhibitor] vs normalized response with variable slope. For micronuclei assays, comparisons were made with one-way ANOVA and Sidak correction for multiple comparisons. For xenograft growth delay experiments, comparisons were made with Mann-Whitney test (for comparison of 2 groups) or Kruskal-Wallis test with FDR-adjusted p-values with Q set to 5% (for comparison of ≥3 groups). For xenograft survival analysis, Kaplan-Meier analysis was used to evaluate survival rate based on death or removal from study when body weight loss exceeded 20% of initial body weight
# We synthesized the imidazotetrazine 4a (KL-50) and the triazene 4b (KL-85), as vehicles to deliver 2-fluoroethyl diazonium (4c), and a series of related agents to probe structure-activity relationships in tissue culture (FIG. Z1, D and F). The 2-fluoropropyl- and 3-fluoropropyl-triazenes (10 and 11, respectively) were prepared by diazotization of 4-aminoimdazole-5-carboxamide, followed by the addition of the respective amine. All other triazenes were prepared according to literature procedures. We evaluated the cytotoxicity of our compounds in short-term cell viability assays against four isogenic LN229 glioblastoma cell lines engineered to be proficient or deficient in MGMT and/or MMR activity, using short hairpin RNAs (shRNAs) targeting MSH2 (referred to as MGMT+/−, MMR+/− cells hereafter; FIG. ZS2A). This approach allowed us to rapidly and rigorously interrogate the relationship between MGMT and MMR status and compound activity.
# The compounds 10a through 10l and TMZ were tested in the short-term cell viability assay.
# [6] = tested on: PD20 cells, FANCD2−/− or +FANCD2; experiment: Short-term cell viability assay in FANCD2 model; assay type: cell-based, human; settings: PD20 FANCD2−/− versus +FANCD2
# Experimental: (§2) FIGS. Z4A-Z4I. KL-50 (4a) activates DNA damage response pathways and cycle arrest in MGMT− cells, independent of MMR, and induces sensitivity in cells deficient in ICL or HR repair. (FIGS. Z4A, Z4B, and Z4C) Phospho-SER139-H2AX (γH2AX) (A), 53BP1 (FIG. Z4B), and phospo-SER33-RPA2 (pRPA) (FIG. Z4C) foci formation quantified by % cells with 10 foci in LN229 MGMT+/−, MMR+/− cells treated with 0.1% DMSO control, 20 μM KL-50 (4a), or 20 μM TMZ (1a) for 48 h. Columns, mean; error bars, SD; n≥5 technical replicates. Additional time course data is presented in FIG. ZS6B to D. (FIG. Z4D) Representative foci images of data in (FIG. Z4A) to (FIG. Z4C). (FIG. Z4E) Percentage of cells in G1, S, and G2 cell cycle phases after treatment as in (A) to (C), measured using integrated nuclear (Hoechst) staining intensity. Columns, mean; error bars, SD; n=3 independent analyses. (FIG. Z4F) Change in percent cells with 1 micronuclei from baseline (DMSO control) after treatment as in (FIG. Z4A) to (FIG. Z4C). Columns, mean; error bars, SD; […] technical replicates; **** p<0.0001; ns, not significant. Additional validation is presented in FIG. ZS9, A and B. (FIG. Z4G) Short-term viability assay curves for KL-50 (4a) in PD20 cells, deficient in FANCD2 (FANCD2−/−) or complemented with FANCD2 (+FANCD2). (FIG. Z4H) Short-term viability assay curves for KL-50 (4a) in PEO4 (BRCA2+) and PEO1 (BRCA2−/−) cells pre-treated with 0.01% DMSO control or 10 μM O^6BG (+O^6BG) for 1 h prior to KL-50 (4a) addition. (FIG. Z4I) Short-term viability assay curves for KL-50 (4a) in DLD1 BRCA2+/− and BRCA2−/− cells pre-treated with 0.01% DMSO control or 10 μM O^6BG (+O^6BG) for 1 h prior to KL-50 (4a) addition. For (FIG. Z4G), (FIG. Z4H), and (FIG. Z4I), points, mean; error bars, SD; n=3 technical replicates.
# Short-term Cell Viability Assay. Cells were seeded in 96-well plates at 1000 or 2000 cells/well and allowed to adhere at 23° C. for 60 min and then incubated overnight at 37° C. […] Cells were imaged on a Cytation 3 imaging reader (BioTek) and quantified using CellProfiler software.
# [7] = tested on: PEO4 (BRCA2+) and PEO1 (BRCA2−/−) cells; experiment: Short-term cell viability assay in PEO1/4 model; assay type: cell-based, human; settings: for therapeutic index (TI): PEO1/4 model, ratio of IC50 values; for sensitivity of BRCA2-deficient cells (in words): PEO1 versus PEO4, ± 10 μM O^6BG
# Experimental: as §2, §1
# [8] = tested on: DLD1 BRCA2+/− and BRCA2−/− cells; experiment: Short-term cell viability assay in DLD1 isogenic model; assay type: cell-based, human; settings: for sensitivity of BRCA2-deficient cells (in words): DLD1 BRCA2−/− versus BRCA2+/−, ± 10 μM O^6BG; for therapeutic index (TI): ratio of IC50 values in MGMT+/BRCA2+ cells compared to MGMT−/BRCA2− cells
# Experimental: as §2, §1
smiles,measurement,setting,value
"COS(C)(=O)=O [MMS, Methylmethane sulfonate, reference compound]",change in DNA melting temperature (in words),[1],comparable changes in measured DNA melting temperature
NC(=O)c1nc[nH]c1N=NNCCF [KL-85],IC50,LN229 MGMT−/MMR− cells,27.5 µM
same,"effect on IR-induced comet tail, ICL detection (in words)","[2]; MGMT−/MMR+ cells, 200 μM for 24 h, 10 Gy",Comparable results
same,crosslinked genomic DNA (in words),[3],presence of crosslinked DNA
O=NN(CCCl)C(=O)NC1CCCCC1 [lomustine],clonogenic survival (in words),[4],effective in MMR− cells but was cytotoxic to MGMT+ cells
"NC(=O)c1ncn2c(=O)n(CCCl)nnc12 [MTZ, mitozolomide]",selectivity for MGMT-deficient cells,[5],~7 fold
same,DNA damage in unirradiated samples (in words),"[2]; MGMT−/MMR− cells, 200 μM, 2, 8 or 24 h, 0 Gy","induced maximal damage at 2 h, which decreased over time"
same,"rate of ICL formation, DNA mobility after IR (in words)","[2]; MGMT−/MMR− cells, 200 μM, 2, 8 or 24 h, 10 Gy",reduced DNA mobility within 2 h
"CO[C@@]12[C@H](COC(N)=O)C3=C(C(=O)C(C)=C(N)C3=O)N1C[C@@H]1N[C@@H]12 [MMC, mitomycin C]","effect on IR-induced comet tail, ICL detection (in words)","[2]; MGMT−/MMR+ cells, 0.1 μM for 24 h, 10 Gy",partial reduction in the IR-induced comet tail
same,"effect on IR-induced comet tail, ICL detection (in words)","[2]; MGMT−/MMR+ cells, 50 μM for 2 h, 10 Gy",completely abolished the IR-induced comet tail
same,comet tailing in the absence of IR (in words),"[2]; MGMT−/MMR+ cells, TMZ and KL-50 200 μM, MMC 0.1 or 50 μM",did not
same,sensitivity of FANCD2-deficient cells (in words),[6],hypersensitivity to crosslinking agents in FANCD2−/− cells
same,therapeutic index (TI),[7],7 fold
same,sensitivity of BRCA2-deficient cells (in words),[7],hypersensitivity of PEO4 BRCA2−/− cells to crosslinking agents independent of MGMT depletion
same,sensitivity of BRCA2-deficient cells (in words),[8],hypersensitivity of DLD1 BRCA2−/− cells to crosslinking agents independent of MGMT depletion
same,therapeutic index (TI),[8],26 fold
N.N.[Cl][Pt][Cl] [cisplatin],sensitivity of FANCD2-deficient cells (in words),[6],hypersensitivity to crosslinking agents in FANCD2−/− cells
same,therapeutic index (TI),[7],13 fold
same,sensitivity of BRCA2-deficient cells (in words),[7],hypersensitivity of PEO4 BRCA2−/− cells to crosslinking agents independent of MGMT depletion
same,sensitivity of BRCA2-deficient cells (in words),[8],hypersensitivity of DLD1 BRCA2−/− cells to crosslinking agents independent of MGMT depletion
same,therapeutic index (TI),[8],42 fold

# From US20240400572A1, “COMPOUNDS AND METHODS FOR TREATING CANCERS THAT ARE MGMT DEFICIENT REGARDLESS OF MMR STATUS” (Yale University, priority 2021, published 2024)
